Results on 25 molecules are retold here after patent US20250353820A1, “ANTIVIRAL PYRAZOLOPYRIDINONE COMPOUNDS” (Novartis AG, priority 2019, published 2025).

Structures are written as SMILES.

The target of this experiment is human HSV DNA polymerase UL30 (Human herpesvirus 1 (strain 17) (HHV-1) (Human herpes simplex virus 1), UniProt P04293). In words: biochemical. The settings on record: 625 pM HSV polymerase, 20 minutes at room temperature; read-out: HSV-polymerase Biochemical IC50.
In general, IC50 refers to the concentration needed to halve the response being measured. Take `Cn1nc(C(=O)NCc2ccc(Cl)cc2)c2c1C(=O)N(CC1(S(=O)(=O)NCCO)CC1)CC2` [Example 143, N-(4-Chlorobenzyl)-6-((1-(N-(2-hydroxyethyl)sulfamoyl)cyclopropyl)methyl)-1-methyl-7-oxo-4,5,6,7-tetrahydro-1H-pyrazolo[3,4-c]pyridine-3-carboxamide]: the half-maximal inhibitory concentration (IC50) stood at 344 nM. Consider `CN(CCO)S(=O)(=O)C1(CN2CCc3c(C(=O)NCc4ccc(Cl)cc4)nn(C)c3C2=O)CC1` [Example 144, N-(4-Chlorobenzyl)-6-((1-(N-(2-hydroxyethyl)-N-methylsulfamoyl)cyclopropyl)methyl)-1-methyl-7-oxo-4,5,6,7-tetrahydro-1H-pyrazolo[3,4-c]pyridine-3-carboxamide], for which the IC50 is 67 nM. Next, `Cn1nc(C(=O)NCc2ccc(C#N)cc2)c2c1C(=O)N(CC1(S(=O)(=O)NCCO)CC1)CC2` [Example 145, N-(4-Cyanobenzyl)-6-((1-(N-(2-hydroxyethyl)sulfamoyl)cyclopropyl)methyl)-1-methyl-7-oxo-4,5,6,7-tetrahydro-1H-pyrazolo[3,4-c]pyridine-3-carboxamide]: 237 nM. Next, `CN(CCO)S(=O)(=O)C1(CN2CCc3c(C(=O)NCc4ccc(C#N)cc4)nn(C)c3C2=O)CC1` [Example 146, N-(4-Cyanobenzyl)-6-((1-(N-(2-hydroxyethyl)-N-methylsulfamoyl)cyclopropyl)methyl)-1-methyl-7-oxo-4,5,6,7-tetrahydro-1H-pyrazolo[3,4-c]pyridine-3-carboxamide]: 74 nM; `CN(C(CO)CO)S(=O)(=O)C1(CN2CCc3c(C(=O)NCc4ccc(C#N)cc4)nn(C)c3C2=O)CC1` [Example 147, N-(4-Cyanobenzyl)-6-((1-(N-(1,3-dihydroxypropan-2-yl)-N-methylsulfamoyl)cyclopropyl)methyl)-1-methyl-7-oxo-4,5,6,7-tetrahydro-1H-pyrazolo[3,4-c]pyridine-3-carboxamide]: 644 nM; `Cn1nc(C(=O)NCc2ccc(Cl)cc2)c2c1C(=O)N(CC1(S(=O)(=O)NC(C)(C)CO)CC1)CC2` [Example 148, N-(4-Chlorobenzyl)-6-((1-(N-(1-hydroxy-2-methylpropan-2-yl)sulfamoyl)cyclopropyl)methyl)-1-methyl-7-oxo-4,5,6,7-tetrahydro-1H-pyrazolo[3,4-c]pyridine-3-carboxamide]: 155 nM.

On to `Cn1nc(C(=O)NCc2ccc(C#N)cc2)c2c1C(=O)N(CC1(S(=O)(=O)NC(C)(C)CO)CC1)CC2` [Example 149, N-(4-Cyanobenzyl)-6-((1-(N-(1-hydroxy-2-methylpropan-2-yl)sulfamoyl)cyclopropyl)methyl)-1-methyl-7-oxo-4,5,6,7-tetrahydro-1H-pyrazolo[3,4-c]pyridine-3-carboxamide], for which the IC50 worked out at 161 nM. Regarding `Cn1nc(C(=O)NCc2ccc(Cl)cc2)c2c1C(=O)N(CC1(S(=O)(=O)N3CC(O)C3)CC1)CC2` [Example 150, N-(4-Chlorobenzyl)-6-((1-((3-hydroxyazetidin-1-yl)sulfonyl)cyclopropyl)methyl)-1-methyl-7-oxo-4,5,6,7-tetrahydro-1H-pyrazolo[3,4-c]pyridine-3-carboxamide], the IC50 was determined as 81 nM. Next, `CNS(=O)(=O)C1(CN2CCc3c(C(=O)NCc4ccc(Cl)cc4)nn(C)c3C2=O)CC1` [Example 151, N-(4-Chlorobenzyl)-1-methyl-6-((1-(N-methylsulfamoyl)cyclopropyl)methyl)-7-oxo-4,5,6,7-tetrahydro-1H-pyrazolo[3,4-c]pyridine-3-carboxamide]: 118 nM. Consider `Cn1nc(C(=O)NCc2ccc(Cl)cc2)c2c1C(=O)N(CC1(S(=O)(=O)NCC(C)(C)O)CC1)CC2` [Example 152, N-(4-Chlorobenzyl)-6-((1-(N-(2-hydroxy-2-methylpropyl)sulfamoyl)cyclopropyl)methyl)-1-methyl-7-oxo-4,5,6,7-tetrahydro-1H-pyrazolo[3,4-c]pyridine-3-carboxamide], for which the half-inhibitory concentration (IC50) came out at 827 nM.

On to `Cn1nc(C(=O)NCc2ccc(Cl)cc2)c2c1C(=O)N(CC1(S(=O)(=O)NC(C)(CO)CO)CC1)CC2` [Example 153, N-(4-Chlorobenzyl)-6-((1-(N-(1,3-dihydroxy-2-methylpropan-2-yl)sulfamoyl)cyclopropyl)methyl)-1-methyl-7-oxo-4,5,6,7-tetrahydro-1H-pyrazolo[3,4-c]pyridine-3-carboxamide], for which the IC50 came to 292 nM.

Regarding `Cn1nc(C(=O)NCc2ccc(C#N)cc2)c2c1C(=O)N(CC1(S(=O)(=O)Nc3ccccn3)CC1)CC2` [Example 155, N-(4-Cyanobenzyl)-1-methyl-7-oxo-6-((1-(N-(pyridin-2-yl)sulfamoyl)cyclopropyl)methyl)-4,5,6,7-tetrahydro-1H-pyrazolo[3,4-c]pyridine-3-carboxamide], the 50% inhibitory concentration (IC50) was determined as 78 nM. Next, `Cn1ccc(NS(=O)(=O)C2(CN3CCc4c(C(=O)NCc5ccc(C#N)cc5)nn(C)c4C3=O)CC2)n1` [Example 156]: 62 nM; `Cc1cccc(NS(=O)(=O)C2(CN3CCc4c(C(=O)NCc5ccc(C#N)cc5)nn(C)c4C3=O)CC2)n1` [Example 157]: 46 nM. For `Cn1nc(C(=O)NCc2ccc(Cl)cc2)c2c1C(=O)N(CC1(S(=O)(=O)Nc3ccccn3)CC1)CC2` [Example 158], the IC50 worked out at 58 nM. Then `COc1cccnc1NS(=O)(=O)C1(CN2CCc3c(C(=O)NCc4ccc(C#N)cc4)nn(C)c3C2=O)CC1` [Example 159], with 423 nM; and `COc1ccc(C)nc1NS(=O)(=O)C1(CN2CCc3c(C(=O)NCc4ccc(C#N)cc4)nn(C)c3C2=O)CC1` [Example 160], with 301 nM; and `Cc1ncccc1NS(=O)(=O)C1(CN2CCc3c(C(=O)NCc4ccc(C#N)cc4)nn(C)c3C2=O)CC1` [Example 161], with 40 nM. For the molecule `COc1ncccc1NS(=O)(=O)C1(CN2CCc3c(C(=O)NCc4ccc(C#N)cc4)nn(C)c3C2=O)CC1` [Example 162], the 50% inhibitory concentration (IC50) turned out to be 18 nM. `COc1cccc(NS(=O)(=O)C2(CN3CCc4c(C(=O)NCc5ccc(C#N)cc5)nn(C)c4C3=O)CC2)n1` [Example 163]: the IC50 was 36 nM.

Consider `Cc1cccnc1NS(=O)(=O)C1(CN2CCc3c(C(=O)NCc4ccc(C#N)cc4)nn(C)c3C2=O)CC1` [Example 164], for which the IC50 came to 185 nM. Then `Cc1cc(NS(=O)(=O)C2(CN3CCc4c(C(=O)NCc5ccc(Cl)cc5)nn(C)c4C3=O)CC2)no1` [Example 166], with 12 nM; and `Cn1nc(C(=O)NCc2ccc(C#N)cc2)c2c1C(=O)N(CC1(S(=O)(=O)Nc3cc(C4CC4)on3)CC1)CC2` [Example 167], with 104 nM. `Cn1nc(C(=O)NCc2ccc(C#N)cc2)c2c1C(=O)N(CC1(S(=O)(=O)C3CCOCC3)CC1)CC2` [Example 169]: the half-maximal inhibitory concentration (IC50) worked out at 238 nM. Turning to `Cn1nc(C(=O)NCc2ccc(C#N)cc2)c2c1C(=O)N(CC1(S(=O)(=O)C3(C)COC3)CC1)CC2` [Example 172, N-(4-Cyanobenzyl)-1-methyl-6-((1-((3-methyloxetan-3-yl)sulfonyl)cyclopropyl)methyl)-7-oxo-4,5,6,7-tetrahydro-1H-pyrazolo[3,4-c]pyridine-3-carboxamide], the half-maximal inhibitory concentration (IC50) was 63 nM.
